Ratio data for four compounds are collected here from ChEMBL document CHEMBL3044722, “Potent enantioselective auxin: indole-3-succinic acid” (2002).

Common to all, as to format: functional
Experiment [1] relates to Fuchsia. As to the kind of experiment: Induction of root growth in swingtime Fuchsia hybrida at 10^-7 M after 7 to 34 days relative to indole-3-butyric acid.
Experiment [2] deals with Fuchsia. Nature of the experiment: Induction of root growth in varigated Fuchsia hybrida at 10^-7 M after 7 to 34 days relative to indole-3-butyric acid.
Experiment [3] has as its system Fuchsia. Nature of the experiment: Induction of root growth in varigated Fuchsia hybrida at 10^-8 M after 7 to 34 days relative to indole-3-butyric acid.
Experiment [4] concerns Fuchsia. As to the kind of experiment: Induction of root growth in swingtime Fuchsia hybrida at 10^-8 M after 7 to 34 days relative to indole-3-butyric acid.

On to `O=C(O)Cc1c[nH]c2ccccc12` [INDOLE-3-ACETIC ACID], for which the Ratio in the experiment with Fuchsia [1] and with Fuchsia [2] was 0 in each case.
As for `O=C(O)C[C@H](C(=O)O)c1c[nH]c2ccccc12`, the Ratio in the experiment with Fuchsia [1] was 5.7; in the experiment on Fuchsia [3], 4.6; in the experiment with Fuchsia [4], 4.8; in the experiment with Fuchsia [2] it was 3.8.
For `O=C(O)C[C@@H](C(=O)O)c1c[nH]c2ccccc12`, the Ratio worked out at 5.6 in the experiment on Fuchsia [1], 4.4 in the experiment with Fuchsia [3], 7.1 in the experiment on Fuchsia [4] and 0.7 in the experiment on Fuchsia [2].
Consider `O=C(O)CC(C(=O)O)c1c[nH]c2ccccc12` (racemic), for which the Ratio in the experiment with Fuchsia [1] is given as 7.
